Reference: patent publication US20160220557A1, “USE OF ACETYL-COA CARBOXYLASE INHIBITORS FOR TREATING ACNE VULGARIS” (PFIZER INC., priority 2013, published 2016)

Legend:
CYP2C9 = target: T1, CYP2C9 (Homo sapiens, UniProt P11712); assay: P450 inhibition in liver microsomes with probe substrates; assay type: in vitro ADME
T1 construct: from tissue; host or cells: liver microsomes

CYP2B6 = target: T2, CYP2B6 (Homo sapiens, UniProt P20813); assay: as above; assay type: in vitro ADME
T2 construct: from tissue; host or cells: liver microsomes
T2 sequence (P20813 1-491): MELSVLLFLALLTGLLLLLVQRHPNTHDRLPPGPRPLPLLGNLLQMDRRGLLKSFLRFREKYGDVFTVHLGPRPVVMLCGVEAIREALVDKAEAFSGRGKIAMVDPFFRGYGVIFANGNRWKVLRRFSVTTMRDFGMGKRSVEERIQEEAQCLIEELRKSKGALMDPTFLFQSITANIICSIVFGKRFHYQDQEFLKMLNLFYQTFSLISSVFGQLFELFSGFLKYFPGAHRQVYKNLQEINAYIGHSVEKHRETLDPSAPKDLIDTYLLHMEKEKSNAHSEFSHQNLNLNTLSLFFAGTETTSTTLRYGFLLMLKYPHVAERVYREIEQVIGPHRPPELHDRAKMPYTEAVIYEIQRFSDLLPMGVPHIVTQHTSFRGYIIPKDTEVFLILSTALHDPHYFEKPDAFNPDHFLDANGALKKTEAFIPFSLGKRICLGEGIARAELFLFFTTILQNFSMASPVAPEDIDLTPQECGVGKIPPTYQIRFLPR

[1] = tested on: SZ95 human sebocyte cells; assay: Inhibition of de novo lipogenesis (14C-acetate incorporation) in cultured human sebocytes; assay type: cell-based; settings: for IC50: Homo sapiens, SZ95 sebocytes, 14C-acetate incorporation into lipids relative to vehicle, read-out: C9302E Sebocyte IC50
Method: SZ95 sebocytes were grown in Human Sebocyte Growth Medium (HSGM) (Sebomed® medium (Biochrom: F8205) supplemented with 10% heat-inactivated fetal bovine serum, 1% penicillin/streptomycin, 1 mM calcium chloride and 5 ng/mL recombinant human epidermal growth factor (Life Tech: PHG0311)). At 90% confluence, cells were washed three times with PBS and then detached with 0.05% Trypsin-EDTA. Cells were centrifuged and resuspended in HSGM containing 10% charcoal-stripped serum (Life Tech: 12676-029). Cells were then plated in 24-well plates at a density of 0.25×10^6 cells/well and were incubated overnight to enable cell adherence to the culture plate.
Cells were treated with a dose response of compound, and each dose was assayed in triplicate. Briefly, compounds were dissolved in DMSO stocks and diluted 1:1000 into charcoal-stripped media. 0.1% DMSO without compound was used as the vehicle control. After a 1 hour preincubation with compound or vehicle, 0.25 μCi ^14C-acetic acid (American Radiolabeled Chemicals: ARC0158B) was added to each well. Plates were then incubated for an additional two hours. At the end of the incubation period, cells were removed from incubator, placed on ice, and then washed twice with ice-cold PBS to remove free ^14C-acetic acid. Plates were sealed and stored at −20° C. until analysis.
Plates were shaken for 1 hour at room temperature to induce lysis. Lysates were transferred to individual 1.5 mL polypropylene tubes, and wells were washed with 175 μl of PBS, which was added to lysates. 450 μl of a 1:1 (v/v) chloroform:methanol solution was then added to each tube, and then all tubes were vortexed for 10 seconds and centrifuged at 20,000×g for 5 minutes at room temperature to separate aqueous from organic phase. A 25 μl aliquot was removed from the bottom organic layer of each sample and added to 6 mL OptiPhase supermix (PerkinElmer: 1200-439) scintillation fluid. Counts of ^14C incorporated into lipids were assessed by scintillation counting. DNL (counts of ^14C incorporated into lipids) was expressed for compound treated cells relative to DNL in the vehicle control treated cells for determination of EC50 values. For a subset of the compounds tested, a second aliquot (3×35 μl) of the organic layer of each sample was removed and applied to a TLC lane (Analtech Silica Gel G Plates). Radiolabeled lipids were resolved using a 2-solvent system. Solvent 1 contained a 100:100:100:40:36 mixture of ethyl acetate:isopropyl alcohol:CHCl3:MeOH:0.25% KCl and solvent 2 a 70:27:3 hexane:diethyl ether:acetic acid mix. The TLC plate was dried under nitrogen for 30 minutes and [^14C]-calibrators added to a vacant lane. Bands were visualized and quantitated using a Molecular Dynamics' Storm 860 Phosphorimager system following 18-36 hours exposure to a Phosphorimager screen.

[2] = target: T3, recombinant human ACC2 (rhACC2) (Homo sapiens, UniProt O00763, V2141I); assay: Transcreener ADP detection FP assay, recombinant human ACC2 inhibition; assay type: biochemical; settings: recombinant human ACC2, 50 μM ATP; read-out: Transcreener Assay hACC2 IC50
T3 construct: made in house; host or cells: CHO cells, tetracycline-induced (pcDNA5 FRT TO-TOPO)

CYP2C19 = target: T4, CYP2C19 (Homo sapiens, UniProt P33261); assay: P450 inhibition in liver microsomes with probe substrates; assay type: in vitro ADME
T4 construct: from tissue; host or cells: liver microsomes

hACC2 = hACC2 (Homo sapiens, UniProt O00763); assay: Radiometric ACC2 inhibition assay; assay type: biochemical
hACC1 = hACC1 (Homo sapiens, UniProt Q13085); assay: Radiometric ACC1 inhibition assay; assay type: biochemical

hACC2, sequence (O00763 whole entry): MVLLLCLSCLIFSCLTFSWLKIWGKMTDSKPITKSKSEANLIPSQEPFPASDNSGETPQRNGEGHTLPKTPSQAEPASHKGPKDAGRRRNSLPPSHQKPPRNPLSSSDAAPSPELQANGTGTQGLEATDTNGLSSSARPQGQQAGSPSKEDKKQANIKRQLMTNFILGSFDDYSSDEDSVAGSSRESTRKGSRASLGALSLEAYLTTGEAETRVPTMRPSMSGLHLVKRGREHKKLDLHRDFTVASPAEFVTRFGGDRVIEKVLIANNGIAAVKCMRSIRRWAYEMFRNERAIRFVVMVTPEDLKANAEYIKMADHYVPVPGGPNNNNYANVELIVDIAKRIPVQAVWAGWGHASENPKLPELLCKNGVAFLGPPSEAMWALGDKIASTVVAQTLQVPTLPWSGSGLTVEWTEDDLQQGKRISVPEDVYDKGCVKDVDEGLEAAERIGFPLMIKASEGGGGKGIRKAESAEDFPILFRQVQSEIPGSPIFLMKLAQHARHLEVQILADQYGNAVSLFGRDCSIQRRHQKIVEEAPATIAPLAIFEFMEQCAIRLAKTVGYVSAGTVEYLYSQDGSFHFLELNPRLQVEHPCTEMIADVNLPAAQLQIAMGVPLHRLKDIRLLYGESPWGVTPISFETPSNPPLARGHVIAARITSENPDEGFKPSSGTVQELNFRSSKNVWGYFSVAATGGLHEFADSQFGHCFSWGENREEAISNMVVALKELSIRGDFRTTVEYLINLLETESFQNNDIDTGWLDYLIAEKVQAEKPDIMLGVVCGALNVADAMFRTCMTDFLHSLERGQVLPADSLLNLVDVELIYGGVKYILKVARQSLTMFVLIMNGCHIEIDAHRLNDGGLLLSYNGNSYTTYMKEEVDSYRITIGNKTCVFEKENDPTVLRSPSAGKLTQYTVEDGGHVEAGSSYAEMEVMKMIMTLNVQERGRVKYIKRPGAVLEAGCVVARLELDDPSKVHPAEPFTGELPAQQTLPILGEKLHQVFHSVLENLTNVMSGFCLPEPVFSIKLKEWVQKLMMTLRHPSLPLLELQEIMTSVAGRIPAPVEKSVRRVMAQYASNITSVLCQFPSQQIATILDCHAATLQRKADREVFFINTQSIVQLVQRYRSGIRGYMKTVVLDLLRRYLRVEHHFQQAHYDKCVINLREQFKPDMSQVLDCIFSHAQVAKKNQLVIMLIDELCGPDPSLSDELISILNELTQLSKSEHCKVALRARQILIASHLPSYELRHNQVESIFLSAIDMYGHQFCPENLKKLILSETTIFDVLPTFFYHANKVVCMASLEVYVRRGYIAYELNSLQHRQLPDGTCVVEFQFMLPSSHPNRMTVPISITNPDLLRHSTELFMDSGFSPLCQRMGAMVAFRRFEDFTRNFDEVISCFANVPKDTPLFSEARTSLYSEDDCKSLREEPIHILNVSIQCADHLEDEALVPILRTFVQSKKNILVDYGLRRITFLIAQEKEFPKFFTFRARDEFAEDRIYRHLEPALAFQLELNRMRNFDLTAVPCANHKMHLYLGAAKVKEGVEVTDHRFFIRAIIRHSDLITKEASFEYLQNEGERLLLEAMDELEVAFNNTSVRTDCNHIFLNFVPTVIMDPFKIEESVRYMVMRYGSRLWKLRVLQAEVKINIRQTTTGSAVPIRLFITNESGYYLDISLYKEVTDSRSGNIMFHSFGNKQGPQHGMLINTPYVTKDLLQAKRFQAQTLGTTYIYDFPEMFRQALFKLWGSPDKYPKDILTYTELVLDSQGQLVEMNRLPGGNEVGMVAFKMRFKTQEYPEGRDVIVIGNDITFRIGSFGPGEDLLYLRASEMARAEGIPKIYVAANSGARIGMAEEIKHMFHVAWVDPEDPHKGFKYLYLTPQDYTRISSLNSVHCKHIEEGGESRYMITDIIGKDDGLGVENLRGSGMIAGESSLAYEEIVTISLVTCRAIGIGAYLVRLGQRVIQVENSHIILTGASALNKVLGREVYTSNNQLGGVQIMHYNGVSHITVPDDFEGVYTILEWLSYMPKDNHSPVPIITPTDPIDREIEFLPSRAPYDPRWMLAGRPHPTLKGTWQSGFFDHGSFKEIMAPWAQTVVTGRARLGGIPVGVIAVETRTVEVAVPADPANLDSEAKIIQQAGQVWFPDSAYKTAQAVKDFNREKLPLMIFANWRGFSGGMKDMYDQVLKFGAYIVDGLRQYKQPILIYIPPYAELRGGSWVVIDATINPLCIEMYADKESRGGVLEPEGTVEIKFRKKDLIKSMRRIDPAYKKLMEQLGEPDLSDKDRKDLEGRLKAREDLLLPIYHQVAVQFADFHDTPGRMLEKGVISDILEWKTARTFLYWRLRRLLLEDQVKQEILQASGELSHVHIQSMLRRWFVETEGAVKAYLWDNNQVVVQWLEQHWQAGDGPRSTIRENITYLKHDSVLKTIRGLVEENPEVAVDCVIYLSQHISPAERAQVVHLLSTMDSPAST
T4 sequence (P33261 whole entry): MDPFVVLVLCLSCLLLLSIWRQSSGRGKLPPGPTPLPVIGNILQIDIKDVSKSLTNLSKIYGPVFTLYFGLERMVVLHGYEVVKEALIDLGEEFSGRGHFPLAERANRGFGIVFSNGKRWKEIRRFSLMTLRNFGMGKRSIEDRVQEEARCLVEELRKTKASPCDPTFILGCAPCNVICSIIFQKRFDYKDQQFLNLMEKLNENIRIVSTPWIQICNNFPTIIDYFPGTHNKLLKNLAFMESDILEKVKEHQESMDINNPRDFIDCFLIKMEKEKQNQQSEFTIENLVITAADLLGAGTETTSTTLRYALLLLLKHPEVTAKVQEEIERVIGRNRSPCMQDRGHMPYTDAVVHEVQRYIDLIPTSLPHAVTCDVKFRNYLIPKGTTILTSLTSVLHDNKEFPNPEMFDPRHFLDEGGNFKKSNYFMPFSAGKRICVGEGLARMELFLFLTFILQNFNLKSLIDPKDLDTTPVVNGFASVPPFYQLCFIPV
T1 sequence (P11712 whole entry): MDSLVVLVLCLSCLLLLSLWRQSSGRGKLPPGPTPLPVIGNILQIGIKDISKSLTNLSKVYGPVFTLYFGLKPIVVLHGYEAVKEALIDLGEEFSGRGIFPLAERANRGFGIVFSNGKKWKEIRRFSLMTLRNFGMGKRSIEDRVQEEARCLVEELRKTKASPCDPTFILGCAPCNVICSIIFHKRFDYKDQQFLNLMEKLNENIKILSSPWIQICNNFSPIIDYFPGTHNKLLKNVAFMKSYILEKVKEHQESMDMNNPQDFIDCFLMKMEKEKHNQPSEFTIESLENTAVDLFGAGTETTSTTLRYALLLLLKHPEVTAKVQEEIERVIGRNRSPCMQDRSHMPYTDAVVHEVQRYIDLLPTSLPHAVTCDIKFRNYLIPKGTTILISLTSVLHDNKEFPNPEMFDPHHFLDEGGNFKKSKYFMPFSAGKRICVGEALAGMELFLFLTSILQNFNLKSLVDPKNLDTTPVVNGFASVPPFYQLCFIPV

Row | SMILES | IC50 (CYP2C9) [nM] | IC50 (CYP2B6) [nM] | IC50 [1] [nM] | IC50 [2] [nM] | IC50 (CYP2C19) [nM] | IC50 (hACC2) [nM] | IC50 (hACC1) [nM] | incorporation of 14C-acetate into free cholesterol ([1]; SZ95 cells, TLC, vs. vehicle) | incorporation of 14C-acetate into SZ95 cell lipid species containing or comprised of fatty acids ([1]; TLC, cholesterol esters, triglycerides, free fatty acids, diglycerides, monoglyceride, phospholipid, vs. vehicle)
1 | Cc1nc2ccc(C(=O)N3CCC4(CC3)CC(=O)c3c(cnn3C(C)C)C4)cc2[nH]1 [Example 1, 1-isopropyl-1′-(2-methyl-1H-benzo[d]imidazole-5-carbonyl)-4,6-dihydrospiro[indazole-5,4′-piperidin]-7(1H)-one] | > 30000 | > 30000 | 679 | 45 | > 30000 | 27 | 11 | – | –
2 | CC(C)n1ncc2c1C(=O)CC1(CCN(C(=O)c3ccc4ccc(N)nc4c3)CC1)C2 [Example 3, 1′-(2-aminoquinoline-7-carbonyl)-1-isopropyl-4,6-dihydrospiro[indazole-5,4′-piperidin]-7(1H)-one] | – | – | 90 | – | – | 5 | 5 | did not alter | clear inhibition
